The IC50 is the concentration at which inhibition is half-maximal.

Sequence of human PDE4D catalytic domain (Q08499 380-740 limits assumed): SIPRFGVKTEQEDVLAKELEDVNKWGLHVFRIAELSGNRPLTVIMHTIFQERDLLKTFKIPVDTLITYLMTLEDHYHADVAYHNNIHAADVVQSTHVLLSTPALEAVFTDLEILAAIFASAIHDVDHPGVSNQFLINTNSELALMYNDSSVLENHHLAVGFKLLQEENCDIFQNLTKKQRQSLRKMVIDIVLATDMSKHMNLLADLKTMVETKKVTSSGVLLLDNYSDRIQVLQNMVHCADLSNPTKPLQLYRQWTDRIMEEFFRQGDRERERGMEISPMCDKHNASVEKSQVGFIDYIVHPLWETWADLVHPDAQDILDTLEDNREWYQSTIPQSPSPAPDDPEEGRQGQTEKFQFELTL

This test concerns the target human PDE4D catalytic domain (UniProt no. Q08499) (Homo sapiens (Human), UniProt Q08499). As to the kind of experiment: PDE4 assay (TR-FRET, FAM-cAMP cleavage). The format is biochemical. The following applies: human PDE4D catalytic domain; molar concentration giving 50% inhibition of substrate cleavage; read-out: PDE4 IC50 range. As for the experimental part: The human PDE4D catalytic domain (UniProt no. Q08499 [[…]]) was incubated with a mixture of non-labelled cAMP (cyclic adenosine monophosphate) and fluorescein amidite (FAM) conjugated cAMP and titrated test or reference compound. Following brief incubation the enzymatic reaction was stopped by addition of binding buffer containing nanoparticles with immobilized trivalent metal ions capable of binding 1) AMP phospho groups and 2) terbium (Tb) donor fluorophores. Subsequent excitation of the Tb donor triggers time-resolved FRET to adjacent FAM acceptor molecules resulting in light emission. In the presence of a PDE4 inhibitor, AMP generation was reduced resulting in a lower fluorescence signal. The cAMP phosphodiester is not bound by the detection system.
The results were calculated as the molar concentrations resulting in 50% inhibition of the substrate cleavage compared to controls samples, and are expressed as a range of IC50 (nM).
Consider `CCc1nn(CCCOC(=O)c2ccc(C)cc2)c2c1C(=O)NCC1(CCOCC1)C2` [Example 1, 3-(3-Ethyl-4-oxo-spiro[6,8-dihydro-5H-pyrazolo[4,3-c]azepine-7,4′-tetrahydropyran]-1-yl)propyl 4-methylbenzoate], for which the IC50 was less than 100 nM.

On to `CCc1ccc(C(=O)OCCCn2nc(CC)c3c2CC2(CCOCC2)CNC3=O)cc1` [Example 2, 3-(3-Ethyl-4-oxo-spiro[6,8-dihydro-5H-pyrazolo[4,3-c]azepine-7,4′-tetrahydropyran]-1-yl)propyl 4-ethylbenzoate], for which the IC50 is less than 100 nM.

Consider `CCc1nn(C[C@@H](C)COC(=O)c2ccc(S(=O)(=O)NC)cc2)c2c1C(=O)NCC1(CCOCC1)C2` [Example 3, [(2R)-3-(3-Ethyl-4-oxo-spiro[6,8-dihydro-5H-pyrazolo[4,3-c]azepine-7,4′-tetrahydro-pyran]-1-yl)-2-methyl-propyl] 4-(methylsulfamoyl)benzoate], for which the 50% inhibitory concentration (IC50) is less than 100 nM.

`CCc1nn(C[C@@H](C)COC(=O)c2ccc(S(=O)(=O)N(C)C)cc2)c2c1C(=O)NCC1(CCOCC1)C2` [Example 4, [(2R)-3-(3-Ethyl-4-oxo-spiro[6,8-dihydro-5H-pyrazolo[4,3-c]azepine-7,4′-tetrahydro-pyran]-1-yl)-2-methyl-propyl] 4-(dimethylsulfamoyl)benzoate]: the half-maximal inhibitory concentration (IC50) is less than 100 nM.

In the case of `CCc1nn(C[C@@H](C)COC(=O)c2ccc(S(C)(=O)=O)cc2)c2c1C(=O)NCC1(CCOCC1)C2` [Example 5, [(2R)-3-(3-ethyl-4-oxo-spiro[6,8-dihydro-5H-pyrazolo[4,3-c]azepine-7,4′-tetrahydro-pyran]-1-yl)-2-methyl-propyl] 4-methylsulfonylbenzoate], the IC50 was less than 100 nM.

For `CCc1nn(CCCOC(C)=O)c2c1C(=O)NCC1(CCOCC1)C2` [Example 6, 3-(3-ethyl-4-oxo-spiro[6,8-dihydro-5H-pyrazolo[4,3-c]azepine-7,4′-tetrahydropyran]-1-yl)propyl acetate], the IC50 lay within 100 to 500 nM.

In the case of `CCc1nn(CCCOC(=O)C(C)C)c2c1C(=O)NCC1(CCOCC1)C2` [Example 7, 3-(3-ethyl-4-oxo-spiro[6,8-dihydro-5H-pyrazolo[4,3-c]azepine-7,4′-tetrahydropyran]-1-yl)propyl 2-methylpropanoate], the half-inhibitory concentration (IC50) lay within 100 to 500 nM.

For `CCc1nn(CCCOC(=O)CCOC)c2c1C(=O)NCC1(CCOCC1)C2` [Example 8, 3-(3-ethyl-4-oxo-spiro[6,8-dihydro-5H-pyrazolo[4,3-c]azepine-7,4′-tetrahydropyran]-1-yl)propyl 3-methoxypropanoate], the half-maximal inhibitory concentration (IC50) is greater than 500 nM.

Turning to `CCc1nn(CCCOC(=O)C2CCCC2)c2c1C(=O)NCC1(CCOCC1)C2` [Example 9, 3-(3-ethyl-4-oxo-spiro[6,8-dihydro-5H-pyrazolo[4,3-c]azepine-7,4′-tetrahydropyran]-1-yl)propyl cyclopentanecarboxylate], the IC50 is less than 100 nM.

`CCc1nn(CCCOC(=O)C2CC(O)C2)c2c1C(=O)NCC1(CCOCC1)C2` (stereo not shown) [Example 10, 3-(3-ethyl-4-oxo-spiro[6,8-dihydro-5H-pyrazolo[4,3-c]azepine-7,4′-tetrahydropyran]-1-yl)propyl 3-hydroxycyclobutane-carboxylate]: the IC50 was in the range of 100 to 500 nM.

As for `CCc1nn(CCCOC(=O)C(CC)CC)c2c1C(=O)NCC1(CCOCC1)C2` [Example 11, 3-(3-ethyl-4-oxo-spiro[6,8-dihydro-5H-pyrazolo[4,3-c]azepine-7,4′-tetrahydropyran]-1-yl)propyl 2-ethylbutanoate], the half-inhibitory concentration (IC50) was less than 100 nM.

Turning to `CCc1nn(CCCOC(=O)COC(C)C)c2c1C(=O)NCC1(CCOCC1)C2` [Example 12, 3-(3-ethyl-4-oxo-spiro[6,8-dihydro-5H-pyrazolo[4,3-c]azepine-7,4′-tetrahydropyran]-1-yl)propyl 2-isopropoxyacetate], the 50% inhibitory concentration (IC50) is greater than 500 nM.

Consider `CCc1nn(CCCOC(=O)CCSC)c2c1C(=O)NCC1(CCOCC1)C2` [Example 13, 3-(3-ethyl-4-oxo-spiro[6,8-dihydro-5H-pyrazolo[4,3-c]azepine-7,4′-tetrahydropyran]-l-yl)propyl 3-methylsulfanylpropanoate], for which the IC50 is 100 to 500 nM.

For the origin of these results see patent US10906915B2, “Substituted pyrazoloazepin-4-ones and their use as phosphodiesterase inhibitors” (LEO Pharma A/S, priority 2016, dated 2021).
